{
  "source": "patent US20130283404A1",
  "about": "“EPIGENETICS IN AUTOIMMUNITY” (The Regents of the University of Michigan, priority 2012, published 2013)",
  "key": {"3-nitrotyrosine proteins": {"test_system": "3-nitrotyrosine proteins", "experiment": "3NO2-tyrosine protein derivative formation by immunoblot in CD4+ T cells", "format": "cell-based, human", "details": "CD4+ T cells from a healthy donor, increasing ONOO− then PMA", "experimental": "(§1) CD4+ T cells were suspended in RPMI 1640 supplemented with 10% fetal calf serum, 2 mM glutamine and penicillin/streptomycin then left unstimulated or stimulated with 50 ng/ml PMA for 15 min at 37° C. Treatment with peroxynitrite was performed at the concentrations and time specified in each experiment and before PMA stimulation. Following stimulation, whole cell lysates were obtained and protein content quantified using the BCA Protein Assay (Pierce, Rockford, Ill.).\n(§2) Whole cell protein was fractionated by SDS-PAGE, transferred to nitrocellulose membranes (Schleicher and Schuell, Keene, N.H.) then stained with Ponceau S (Sigma) to verify equal protein loading between lanes. After incubation with the kinase specific antibody then the secondary antibody, protein bands were visualized by chemiluminescence (Amersham, Piscataway, N.J.). The bands on X-ray films were scanned and analyzed with ImageQuant 5.2 software (Amersham) for quantification. Where indicated, blots were stripped and re-probed with the corresponding antibody. Values were normalized to β-actin or the corresponding kinase as indicated.\nExperiments were conducted during development of embodiments of the present invention to confirm the effect of ONOO^− by measuring 3NO2-tyrosine protein derivative formation. CD4+ T cells from a healthy donor were treated with increasing ONOO— concentrations then stimulated with PMA. […]"}, "ERK [1]": {"test_system": "ERK", "experiment": "PMA-stimulated ERK phosphorylation by immunoblot in CD4+ T cells", "format": "cell-based, human", "details": "CD4+ T cells from healthy controls, increasing ONOO− then PMA", "experimental": "as §1, §2\nThis agrees with our previous results showing that PKCδ T505 phosphorylation is upstream of ERK (Gorelik, 2007; herein incorporated by reference in its entirety) and its impairment decreases ERK pathway signaling."}, "PKCα": {"test_system": "PKCα", "experiment": "PKCα activation loop phosphorylation by immunoblot in PMA-stimulated CD4+ T cells", "format": "cell-based, human", "details": "CD4+ T cells from healthy subjects, increasing ONOO− then PMA"}, "PKCδ [2]": {"biological_target": "T1, PKCδ (Homo sapiens, UniProt Q05655)", "T1 construct": "Following stimulation, whole cell lysates were obtained; endogenous in cells; host or cells: primary CD4+ T cells from healthy donors or lupus patients", "T1 sequence (Q05655 whole entry)": "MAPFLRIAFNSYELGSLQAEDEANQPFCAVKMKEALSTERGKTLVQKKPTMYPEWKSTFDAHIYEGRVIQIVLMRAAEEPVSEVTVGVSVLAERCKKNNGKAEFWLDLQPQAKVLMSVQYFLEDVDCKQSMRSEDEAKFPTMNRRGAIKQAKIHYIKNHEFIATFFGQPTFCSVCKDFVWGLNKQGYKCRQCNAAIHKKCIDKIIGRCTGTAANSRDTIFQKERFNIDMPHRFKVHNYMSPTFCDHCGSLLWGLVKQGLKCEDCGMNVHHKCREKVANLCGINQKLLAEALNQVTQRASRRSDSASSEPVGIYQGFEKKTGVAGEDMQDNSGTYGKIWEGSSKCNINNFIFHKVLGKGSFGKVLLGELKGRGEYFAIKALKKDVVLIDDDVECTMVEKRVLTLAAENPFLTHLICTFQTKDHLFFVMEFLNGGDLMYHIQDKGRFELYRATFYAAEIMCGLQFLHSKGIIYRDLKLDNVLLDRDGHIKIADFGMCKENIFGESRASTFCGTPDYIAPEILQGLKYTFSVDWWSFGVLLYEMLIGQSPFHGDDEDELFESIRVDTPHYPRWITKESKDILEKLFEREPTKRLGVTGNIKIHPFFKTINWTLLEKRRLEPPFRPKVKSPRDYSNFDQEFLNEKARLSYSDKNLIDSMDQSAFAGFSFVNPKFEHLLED", "experiment": "PKCδ nitration: anti-nitrotyrosine immunoprecipitation and immunoblot of CD4+ T cell lysates", "format": "cell-based", "details": "control T cells treated with ONOO−", "experimental": "Immunoprecipitations were performed according to the manufacturer's instructions. Lysates from normal or lupus T cells were incubated with the agarose-conjugated anti-nitrotyrosine antibody overnight at 4° C. Following centrifugation an aliquot of the supernatant (containing non-nitrated proteins) and the beads were resuspended in Laemmli sample buffer and boiled for 5 min. Proteins from each fraction were then analyzed in parallel by SDS-PAGE and immunoblot analysis.\nExperiments were conducted during development of embodiments of the present invention to determine whether PKCδ is inactivated in T cells from patients with active lupus through nitration, similar to ONOO treated T cells. CD4+ T cells from 6 lupus patients with active disease (SLEDAI≧4) were stimulated with PMA and nitrated proteins immunoprecipitated from the lysates with anti-3NO2-Tyr antibodies. […] Total and T505 phosphorylated PKCδ content were then compared by immunoblotting.\nNitrated and non-nitrated PKCδ were analyzed as the total PKCδ content in the precipitate and supernatant respectively. The levels of total PKCδ (supernatant+immunoprecipitate) were similar in untreated or ONOO^− treated T cells from control donors and lupus patients (FIGS. 5 A and B). […]"}, "PKCδ [3]": {"biological_target": "T1, PKCδ", "experiment": "PKCδ phosphorylation (p-T505, p-Y311) by immunoblot in PMA-stimulated CD4+ T cells", "format": "cell-based", "experimental": "Peripheral blood mononuclear cells were isolated from healthy donors or SLE patients by Ficoll-Hypaque density gradient centrifugation. CD4+ T cells were then purified by negative selection using magnetic beads (CD4+ T cell isolation kit; Miltenyi Biotec, Auburn, Calif.) as previously reported (Gorelik, 2007; herein incorporated by reference in its entirety).\nas §1, §2\nExperiments were performed during development of embodiments of the present invention to determine if ONOO^− causes the PKCδ T^505 phosphorylation defect observed in lupus T cells. CD4+ T cells from healthy subjects were treated with increasing concentrations of ONOO^− then stimulated with PMA.\nThe phosphorylation of Y^311 in the PKCδ molecule was also examined, because this amino acid is phosphorylated in cells undergoing oxidative stress (Steinberg, 2004; Kikkawa, 2002; herein incorporated by reference in their entireties). […] It is important to note that p-Y^311 is almost undetectable in resting CD4+ T cells (not shown) similar to p-T^505. […] While PMA promotes phosphorylation on T^505, Y^311 is almost insensitive. In contrast, ONOO^− increases Y311 phosphorylation with a concomitant decrease in p-T^505."}, "PKCθ": {"biological_target": "T2, PKCθ (Homo sapiens, UniProt Q04759)", "T2 construct": "Following stimulation, whole cell lysates were obtained; endogenous in cells; host or cells: primary CD4+ T cells from healthy donors", "T2 sequence (Q04759 whole entry)": "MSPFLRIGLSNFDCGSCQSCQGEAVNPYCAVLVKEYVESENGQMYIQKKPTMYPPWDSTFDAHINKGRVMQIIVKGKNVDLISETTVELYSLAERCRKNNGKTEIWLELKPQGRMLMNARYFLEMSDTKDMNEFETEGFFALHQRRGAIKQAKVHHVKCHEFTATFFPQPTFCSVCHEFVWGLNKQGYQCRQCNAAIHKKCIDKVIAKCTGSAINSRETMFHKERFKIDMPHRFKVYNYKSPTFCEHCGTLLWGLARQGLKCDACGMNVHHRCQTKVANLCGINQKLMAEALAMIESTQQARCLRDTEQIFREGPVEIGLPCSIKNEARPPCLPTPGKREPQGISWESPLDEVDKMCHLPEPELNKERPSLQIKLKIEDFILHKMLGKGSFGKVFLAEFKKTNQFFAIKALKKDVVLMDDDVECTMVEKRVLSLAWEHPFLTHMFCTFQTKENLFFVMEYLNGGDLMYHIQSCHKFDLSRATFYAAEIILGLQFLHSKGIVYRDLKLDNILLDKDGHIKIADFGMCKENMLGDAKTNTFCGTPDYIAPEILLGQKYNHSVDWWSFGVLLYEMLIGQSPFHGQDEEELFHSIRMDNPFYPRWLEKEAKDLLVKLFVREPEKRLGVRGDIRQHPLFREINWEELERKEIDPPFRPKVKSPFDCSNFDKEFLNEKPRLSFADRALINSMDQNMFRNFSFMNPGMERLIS", "experiment": "PKCθ activation loop phosphorylation by immunoblot in PMA-stimulated CD4+ T cells", "format": "cell-based", "details": "CD4+ T cells from healthy subjects, increasing ONOO− then PMA"}, "dnPKCδ/CD2rtTA mice [4]": {"test_system": "dnPKCδ/CD2rtTA mice", "experiment": "Kidney histopathology in double transgenic dnPKCδ/CD2rtTA mice given Doxy", "format": "in vivo, mouse", "details": "double transgenic dnPKCδ/CD2rtTA mice pretreated with Doxy", "experimental": "Double transgenic dnPKCδ/CD2rtTA mice were given 4 mg/ml dox/5% sucrose in their drinking water for 20 wks. Double transgenic animals treated with 5% sucrose were used as controls. At indicated times, their kidneys and lungs were removed. Kidneys were divided in two, one half embedded in O.C.T. (Thermo Fisher) and frozen in liquid nitrogen while the other half and the lung were fixed in 10% formalin, paraffin embedded and stained with hematoxylin and eosin. Five micron sections were cut from the frozen tissue and fixed for 10 minutes in ice cold acetone. 10% horse serum/PBS was used to block non-specific sites and the sections were stained with a 1:50 dilution of biotin-Goat anti-mouse IgG (Fc specific) antibody (US Biologicals)/FITC-Streptavidin (BD Pharmingen) to detect IgG depositions.\nImmunohistochemical staining noted IgG deposition along capillary walls and in the mesangial region of glomeruli from transgenic animals pretreated with Doxy (FIG. 11). It was also observed perivascular infiltration of leukocytes in glomeruli (FIG. 12), lungs (FIG. 13) and liver of transgenic animals pretreated with Doxy."}, "ERK [5]": {"test_system": "ERK", "experiment": "ERK phosphorylation in CD3+ splenic T cells of dnPKCδ/CD2-rtTA mice receiving dox", "format": "in vivo, mouse", "details": "dox in drinking water two weeks, relative to sucrose controls", "experimental": "(§3) Double transgenic mice were generated and maintained in a specific pathogen-free environment. All protocols were approved by the University of Michigan Committee on the Use and Care of Animals (UCUCA). Pups were weaned at 20 days of age and genotyped for the presence of both genes by PCR. Transgene expression was induced by giving 2 mg/ml of dox in the drinking water and supplemented with 5% of sucrose. Double transgenic control animals were given 5% sucrose alone. All the double transgenic mice were developmentally normal. Protein and blood in mouse urine was measured using Chemstrip 6 dipsticks (Roche, Madison, Wis.).\n20 μg of protein was diluted in Laemmli loading buffer and denatured by boiling for 5 min followed by electrophoresis in 10-12% SDS-polyacrylamide gels. The fractionated proteins were then electrophoretically transferred to nitrocellulose membranes (Schleicher and Schuell, Keene, N.H.) and stained with Ponceau S (Sigma) to verify equal loading. Membranes were blocked for 1 h in Tris-buffered saline (TBS) containing 0.1% Tween (Sigma) and 5% nonfat dry milk (Bio-Rad). […] For quantitative studies, the bands on X-ray films were scanned and analyzed with ImageQuant 5.2 software (Amersham). […]"}, "dnPKCδ/CD2rtTA mice [6]": {"test_system": "dnPKCδ/CD2rtTA mice", "experiment": "Serum IgG anti-dsDNA antibodies by ELISA in double transgenic mice given dox", "format": "in vivo, mouse", "details": "dox in drinking water, serially over time, versus sucrose controls", "experimental": "Serum anti-dsDNA IgG antibodies were measured by ELISA. Microtiter plates (Costar, Corning, N.Y.) were coated overnight at 4° C. with 10 μg plasmid dsDNA, then 5 μL of mouse sera were added to each well in 100 μl of buffer and incubated overnight at 4° C. Bound anti-dsDNA antibody was detected by chemiluminescence using HRP-goat anti-mouse IgG (Bethyl Lab Inc) at 450 nm in a spectrophotometer equipped with Softmax Pro software (Molecular Devices, Sunnyvale, Calif.). Murine monoclonal anti-dsDNA antibody (Chemicon) was used for the standard curve.\nExperiments were conducted during the development of embodiments of the present invention to determine if the double transgenic develop anti-dsDNA antibodies when given dox. The double transgenic mice were given sucrose or sucrose plus dox in their drinking water, and IgG anti-dsDNA antibodies were measured serially over time by ELISA."}, "Dnmt1": {"test_system": "Dnmt1", "experiment": "Dnmt1 mRNA by real time RT-PCR in spleens of double transgenic mice given dox", "format": "in vivo, mouse", "details": "dox plus sucrose 2 weeks, spleen RNA", "experimental": "as §3\n(§4) 150 ng of RNA was converted to cDNA and amplified in one step using a Quanti-Tect SYBR Green RT-PCR kit (Qiagen). CD70 transcripts were quantitated by real-time RT-PCR using a Rotor-Gene 3000 (Corbett Research, Sydney, Australia) and previously published protocols (Gorelik, 2007; herein incorporated by reference in its entirety). The amplification conditions were: 30 min at 50° C., 15 min at 95° C., 40 cycles of 15s at 94° C., 20s at 56° C. and 30s at 72° C. followed by a final extension at 72° for 5 min. Transcript expression levels were normalized to GAPDH. […]\nDouble transgenic mice were given dox plus sucrose or sucrose alone for 2 weeks. The mice were then sacrificed, RNA isolated from their spleens, then Dnmt1 mRNA levels were measured by real time RT-PCR. […]"}, "CD70": {"test_system": "CD70", "experiment": "CD70 mRNA in CD3+ T cells of dnPKCδ/CD2-rtTA mice with and without dox", "format": "in vivo, mouse", "details": "dox 2 weeks, relative to controls", "experimental": "as §3, §4"}, "[7]": {"details": "PMA stimulation, untreated (0 μM ONOO−) CD4+ T cells"}},
  "data": [
    {"smiles": "O=NOO", "note": "[ONOO^−, peroxynitrite]", "values": [
      {"measurement": "3-nitrotyrosine derivative formation", "setting": "3-nitrotyrosine proteins", "result": "concentration-dependent increase"},
      {"measurement": "PMA-stimulated ERK phosphorylation", "setting": "ERK [1]", "result": "declines"},
      {"measurement": "PKC α activation loop phosphorylation", "setting": "PKCα", "result": "not appreciably affected"},
      {"measurement": "nitrated PKCδ fraction T505 phosphorylated after PMA stimulation", "setting": "PKCδ [2]", "result": 6, "unit": "%"},
      {"measurement": "PKCδ nitrated", "setting": "PKCδ [2]; PMA stimulated", "result": 74, "unit": "%"},
      {"measurement": "PKCδ T505 phosphorylation", "setting": "PKCδ [3]; CD4+ T cells from healthy subjects, increasing ONOO− (20-80 μM, 15 min) then PMA", "result": "concentration dependent decrease"},
      {"measurement": "PKCδ Y311 phosphorylation", "setting": "PKCδ [3]; PMA stimulated CD4+ T cells, increasing ONOO−", "result": "concentration-dependent increase"},
      {"measurement": "PKC θ activation loop phosphorylation", "setting": "PKCθ", "result": "not appreciably affected"}
    ]},
    {"smiles": "CCCCCCCCCCCCCC(=O)O[C@@H]1[C@@H](C)[C@@]2(O)[C@@H](C=C(CO)C[C@]3(O)C(=O)C(C)=C[C@@H]23)[C@@H]2C(C)(C)[C@]12OC(C)=O", "note": "[PMA]", "values": [
      {"measurement": "PKCδ T505 phosphorylation", "setting": "PKCδ [3]; [7]", "result": "substantial increase"},
      {"measurement": "PKCδ Y311 phosphorylation", "setting": "PKCδ [3]; [7]", "result": "no appreciable effect"}
    ]},
    {"smiles": "C[C@H]1c2cccc(O)c2C(O)=C2C(=O)[C@]3(O)C(O)=C(C(N)=O)C(=O)[C@@H](N(C)C)[C@@H]3[C@@H](O)[C@@H]21", "note": "[dox, doxycycline]", "values": [
      {"measurement": "kidney histology", "setting": "dnPKCδ/CD2rtTA mice [4]", "result": "evidence of glomerulonephritis"},
      {"measurement": "ERK phosphorylation following PMA stimulation", "setting": "ERK [5]", "result": "Reduced"},
      {"measurement": "IgG anti-dsDNA antibodies", "setting": "dnPKCδ/CD2rtTA mice [6]", "result": "significantly higher levels"},
      {"measurement": "decrease in Dnmt1 transcripts", "setting": "Dnmt1", "result": "approximately 45%"},
      {"measurement": "CD70 mRNA expression", "setting": "CD70", "result": "significantly increased"}
    ]}
  ]
}
